# Results: the supplement of paper PMC10307832
# Assays:
# Assay in all cases: relative viability (nuclei count vs DMSO), 5 days (fraction); higher = more cells survive
# Avagacestat + Luminespib = compound: NC(=O)[C@@H](CCC(F)(F)F)N(Cc1ccc(-c2ncon2)cc1F)S(=O)(=O)c1ccc(Cl)cc1 [Avagacestat] + CCNC(=O)c1noc(-c2cc(C(C)C)c(O)cc2O)c1-c1ccc(CN2CCOCC2)cc1 [Luminespib] (partner 0.01 µM)
# Summary of the method: (§1)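 Relative viability was taken as the ratio of nuclei in treated wells to nuclei in vehicle wells. Lung cancer cell lines in 1536-well plates received compounds by pin tool one day after seeding, either one drug alone or a fixed anchor-drug dose plus five library-drug doses (not always all listed) in √10 steps. Nuclei were counted on 4× images after 5 days of treatment, and values are medians of duplicate plates.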
# Avagacestat + Lapatinib = compound: NC(=O)[C@@H](CCC(F)(F)F)N(Cc1ccc(-c2ncon2)cc1F)S(=O)(=O)c1ccc(Cl)cc1 [Avagacestat] + CS(=O)(=O)CCNCc1ccc(-c2ccc3ncnc(Nc4ccc(OCc5cccc(F)c5)c(Cl)c4)c3c2)o1 [Lapatinib] (partner 2 µM)
# Summary of the method: as §1
# Avagacestat + Decitabine = compound: NC(=O)[C@@H](CCC(F)(F)F)N(Cc1ccc(-c2ncon2)cc1F)S(=O)(=O)c1ccc(Cl)cc1 [Avagacestat] + Nc1ncn([C@H]2C[C@H](O)[C@@H](CO)O2)c(=O)n1 [Decitabine] (partner 2 µM)
# Summary of the method: as §1
# Avagacestat + Olaparib = compound: NC(=O)[C@@H](CCC(F)(F)F)N(Cc1ccc(-c2ncon2)cc1F)S(=O)(=O)c1ccc(Cl)cc1 [Avagacestat] + O=C(c1cc(Cc2n[nH]c(=O)c3ccccc23)ccc1F)N1CCN(C(=O)C2CC2)CC1 [Olaparib] (partner 8 µM)
# Summary of the method: as §1
cell line,measurement,setting,value
NCI-H2085,relative viability,Avagacestat + Luminespib; first compound 0.08 µM,0.438
same,relative viability,Avagacestat + Luminespib; first compound 0.253 µM,0.481
same,relative viability,Avagacestat + Luminespib; first compound 0.8 µM,0.729
same,relative viability,Avagacestat + Luminespib; first compound 2.53 µM,0.414
same,relative viability,Avagacestat + Luminespib; first compound 8 µM,0.472
same,relative viability,Avagacestat + Lapatinib; first compound 0.08 µM,0.805
same,relative viability,Avagacestat + Lapatinib; first compound 0.253 µM,0.939
same,relative viability,Avagacestat + Lapatinib; first compound 0.8 µM,0.912
same,relative viability,Avagacestat + Lapatinib; first compound 2.53 µM,0.728
same,relative viability,Avagacestat + Lapatinib; first compound 8 µM,0.811
same,relative viability,Avagacestat + Decitabine; first compound 0.08 µM,0.531
same,relative viability,Avagacestat + Decitabine; first compound 0.253 µM,0.609
same,relative viability,Avagacestat + Decitabine; first compound 0.8 µM,0.639
same,relative viability,Avagacestat + Decitabine; first compound 2.53 µM,0.572
same,relative viability,Avagacestat + Decitabine; first compound 8 µM,0.585
same,relative viability,Avagacestat + Olaparib; first compound 0.08 µM,0.823
same,relative viability,Avagacestat + Olaparib; first compound 0.253 µM,0.833
same,relative viability,Avagacestat + Olaparib; first compound 0.8 µM,0.847
same,relative viability,Avagacestat + Olaparib; first compound 2.53 µM,0.825
same,relative viability,Avagacestat + Olaparib; first compound 8 µM,0.8
BEN,relative viability,Avagacestat + Luminespib; first compound 0.08 µM,0.396
same,relative viability,Avagacestat + Luminespib; first compound 0.253 µM,0.308
same,relative viability,Avagacestat + Luminespib; first compound 0.8 µM,0.675
same,relative viability,Avagacestat + Luminespib; first compound 2.53 µM,0.326
same,relative viability,Avagacestat + Luminespib; first compound 8 µM,0.238
same,relative viability,Avagacestat + Lapatinib; first compound 0.08 µM,0.886
same,relative viability,Avagacestat + Lapatinib; first compound 0.253 µM,0.768
same,relative viability,Avagacestat + Lapatinib; first compound 0.8 µM,0.685
same,relative viability,Avagacestat + Lapatinib; first compound 2.53 µM,0.592
same,relative viability,Avagacestat + Lapatinib; first compound 8 µM,0.585
same,relative viability,Avagacestat + Decitabine; first compound 0.08 µM,0.734
same,relative viability,Avagacestat + Decitabine; first compound 0.253 µM,0.712
same,relative viability,Avagacestat + Decitabine; first compound 0.8 µM,0.824
same,relative viability,Avagacestat + Decitabine; first compound 2.53 µM,0.732
same,relative viability,Avagacestat + Decitabine; first compound 8 µM,0.685
same,relative viability,Avagacestat + Olaparib; first compound 0.08 µM,1.12
same,relative viability,Avagacestat + Olaparib; first compound 0.253 µM,1.24
same,relative viability,Avagacestat + Olaparib; first compound 0.8 µM,1.05
same,relative viability,Avagacestat + Olaparib; first compound 2.53 µM,0.838
same,relative viability,Avagacestat + Olaparib; first compound 8 µM,1.05
COR-L 105,relative viability,Avagacestat + Luminespib; first compound 0.08 µM,1.02
same,relative viability,Avagacestat + Luminespib; first compound 0.253 µM,1.01
same,relative viability,Avagacestat + Luminespib; first compound 0.8 µM,0.798
same,relative viability,Avagacestat + Luminespib; first compound 2.53 µM,0.542
same,relative viability,Avagacestat + Luminespib; first compound 8 µM,0.754
same,relative viability,Avagacestat + Lapatinib; first compound 0.08 µM,0.345
same,relative viability,Avagacestat + Lapatinib; first compound 0.253 µM,0.352
same,relative viability,Avagacestat + Lapatinib; first compound 0.8 µM,0.341
same,relative viability,Avagacestat + Lapatinib; first compound 2.53 µM,0.345
same,relative viability,Avagacestat + Lapatinib; first compound 8 µM,0.348
same,relative viability,Avagacestat + Decitabine; first compound 0.08 µM,0.665
same,relative viability,Avagacestat + Decitabine; first compound 0.253 µM,0.734
same,relative viability,Avagacestat + Decitabine; first compound 0.8 µM,0.642
same,relative viability,Avagacestat + Decitabine; first compound 2.53 µM,0.595
same,relative viability,Avagacestat + Decitabine; first compound 8 µM,0.558
same,relative viability,Avagacestat + Olaparib; first compound 0.08 µM,0.724
same,relative viability,Avagacestat + Olaparib; first compound 0.253 µM,0.664
same,relative viability,Avagacestat + Olaparib; first compound 0.8 µM,0.845
same,relative viability,Avagacestat + Olaparib; first compound 2.53 µM,0.601
same,relative viability,Avagacestat + Olaparib; first compound 8 µM,0.565
ABC-1,relative viability,Avagacestat + Luminespib; first compound 0.08 µM,0.387
same,relative viability,Avagacestat + Luminespib; first compound 0.253 µM,0.583
same,relative viability,Avagacestat + Luminespib; first compound 0.8 µM,0.801
same,relative viability,Avagacestat + Luminespib; first compound 2.53 µM,0.359
same,relative viability,Avagacestat + Luminespib; first compound 8 µM,0.555
same,relative viability,Avagacestat + Lapatinib; first compound 0.08 µM,1.23
same,relative viability,Avagacestat + Lapatinib; first compound 0.253 µM,1.32
same,relative viability,Avagacestat + Lapatinib; first compound 0.8 µM,1.14
same,relative viability,Avagacestat + Lapatinib; first compound 2.53 µM,0.497
same,relative viability,Avagacestat + Lapatinib; first compound 8 µM,1.15
same,relative viability,Avagacestat + Decitabine; first compound 0.08 µM,1.12
same,relative viability,Avagacestat + Decitabine; first compound 0.253 µM,1.26
same,relative viability,Avagacestat + Decitabine; first compound 0.8 µM,1.07
same,relative viability,Avagacestat + Decitabine; first compound 2.53 µM,1.17
same,relative viability,Avagacestat + Decitabine; first compound 8 µM,1.24
same,relative viability,Avagacestat + Olaparib; first compound 0.08 µM,0.904
same,relative viability,Avagacestat + Olaparib; first compound 0.253 µM,0.512
same,relative viability,Avagacestat + Olaparib; first compound 0.8 µM,0.836
same,relative viability,Avagacestat + Olaparib; first compound 2.53 µM,0.776
same,relative viability,Avagacestat + Olaparib; first compound 8 µM,0.757
HCC-15,relative viability,Avagacestat + Luminespib; first compound 0.08 µM,0.442
same,relative viability,Avagacestat + Luminespib; first compound 0.253 µM,0.338
same,relative viability,Avagacestat + Luminespib; first compound 0.8 µM,0.309
same,relative viability,Avagacestat + Luminespib; first compound 2.53 µM,0.325
same,relative viability,Avagacestat + Luminespib; first compound 8 µM,0.284
same,relative viability,Avagacestat + Lapatinib; first compound 0.08 µM,0.95
same,relative viability,Avagacestat + Lapatinib; first compound 0.253 µM,1.04
same,relative viability,Avagacestat + Lapatinib; first compound 0.8 µM,1.12
same,relative viability,Avagacestat + Lapatinib; first compound 2.53 µM,0.879
same,relative viability,Avagacestat + Lapatinib; first compound 8 µM,0.778
same,relative viability,Avagacestat + Decitabine; first compound 0.08 µM,0.791
same,relative viability,Avagacestat + Decitabine; first compound 0.253 µM,0.745
same,relative viability,Avagacestat + Decitabine; first compound 0.8 µM,0.705
same,relative viability,Avagacestat + Decitabine; first compound 2.53 µM,0.575
same,relative viability,Avagacestat + Decitabine; first compound 8 µM,0.523
same,relative viability,Avagacestat + Olaparib; first compound 0.08 µM,0.755
same,relative viability,Avagacestat + Olaparib; first compound 0.253 µM,0.887
same,relative viability,Avagacestat + Olaparib; first compound 0.8 µM,0.862
same,relative viability,Avagacestat + Olaparib; first compound 2.53 µM,0.77
same,relative viability,Avagacestat + Olaparib; first compound 8 µM,0.674
NCI-H2170,relative viability,Avagacestat + Luminespib; first compound 0.08 µM,0.721
same,relative viability,Avagacestat + Luminespib; first compound 0.253 µM,0.588
same,relative viability,Avagacestat + Luminespib; first compound 0.8 µM,0.817
same,relative viability,Avagacestat + Luminespib; first compound 2.53 µM,0.399
same,relative viability,Avagacestat + Luminespib; first compound 8 µM,0.754
same,relative viability,Avagacestat + Lapatinib; first compound 0.08 µM,0.297
same,relative viability,Avagacestat + Lapatinib; first compound 0.253 µM,0.265
same,relative viability,Avagacestat + Lapatinib; first compound 0.8 µM,0.291
same,relative viability,Avagacestat + Lapatinib; first compound 2.53 µM,0.275
same,relative viability,Avagacestat + Lapatinib; first compound 8 µM,0.296
same,relative viability,Avagacestat + Decitabine; first compound 0.08 µM,0.462
same,relative viability,Avagacestat + Decitabine; first compound 0.253 µM,0.437
same,relative viability,Avagacestat + Decitabine; first compound 0.8 µM,0.481
same,relative viability,Avagacestat + Decitabine; first compound 2.53 µM,0.495
same,relative viability,Avagacestat + Decitabine; first compound 8 µM,0.501
same,relative viability,Avagacestat + Olaparib; first compound 0.08 µM,0.78
same,relative viability,Avagacestat + Olaparib; first compound 0.253 µM,0.722
same,relative viability,Avagacestat + Olaparib; first compound 0.8 µM,0.612
same,relative viability,Avagacestat + Olaparib; first compound 2.53 µM,0.64
same,relative viability,Avagacestat + Olaparib; first compound 8 µM,0.582
SK-LU-1,relative viability,Avagacestat + Luminespib; first compound 0.08 µM,0.223
same,relative viability,Avagacestat + Luminespib; first compound 0.253 µM,0.189
same,relative viability,Avagacestat + Luminespib; first compound 0.8 µM,0.218
same,relative viability,Avagacestat + Luminespib; first compound 2.53 µM,0.201
same,relative viability,Avagacestat + Luminespib; first compound 8 µM,0.225
same,relative viability,Avagacestat + Lapatinib; first compound 0.08 µM,0.956
same,relative viability,Avagacestat + Lapatinib; first compound 0.253 µM,0.852
same,relative viability,Avagacestat + Lapatinib; first compound 0.8 µM,0.889
same,relative viability,Avagacestat + Lapatinib; first compound 8 µM,0.73
same,relative viability,Avagacestat + Decitabine; first compound 0.08 µM,0.66
same,relative viability,Avagacestat + Decitabine; first compound 0.253 µM,0.638
same,relative viability,Avagacestat + Decitabine; first compound 0.8 µM,0.699
same,relative viability,Avagacestat + Decitabine; first compound 2.53 µM,0.53
same,relative viability,Avagacestat + Decitabine; first compound 8 µM,0.552
same,relative viability,Avagacestat + Olaparib; first compound 0.08 µM,0.472
same,relative viability,Avagacestat + Olaparib; first compound 0.253 µM,0.62
same,relative viability,Avagacestat + Olaparib; first compound 0.8 µM,0.515
same,relative viability,Avagacestat + Olaparib; first compound 8 µM,0.374
NCI-H2009,relative viability,Avagacestat + Luminespib; first compound 0.08 µM,1.13
same,relative viability,Avagacestat + Luminespib; first compound 0.253 µM,1.03
same,relative viability,Avagacestat + Luminespib; first compound 0.8 µM,1.2
same,relative viability,Avagacestat + Luminespib; first compound 2.53 µM,1.04
same,relative viability,Avagacestat + Luminespib; first compound 8 µM,0.901
same,relative viability,Avagacestat + Lapatinib; first compound 0.08 µM,0.963
same,relative viability,Avagacestat + Lapatinib; first compound 0.253 µM,0.995
same,relative viability,Avagacestat + Lapatinib; first compound 0.8 µM,0.857
same,relative viability,Avagacestat + Lapatinib; first compound 2.53 µM,0.993
same,relative viability,Avagacestat + Lapatinib; first compound 8 µM,0.814
same,relative viability,Avagacestat + Decitabine; first compound 0.08 µM,0.412
same,relative viability,Avagacestat + Decitabine; first compound 0.253 µM,0.384
same,relative viability,Avagacestat + Decitabine; first compound 0.8 µM,0.386
same,relative viability,Avagacestat + Decitabine; first compound 2.53 µM,0.332
same,relative viability,Avagacestat + Decitabine; first compound 8 µM,0.395
same,relative viability,Avagacestat + Olaparib; first compound 0.08 µM,0.718
same,relative viability,Avagacestat + Olaparib; first compound 0.253 µM,0.73
same,relative viability,Avagacestat + Olaparib; first compound 0.8 µM,0.779
same,relative viability,Avagacestat + Olaparib; first compound 2.53 µM,0.667
same,relative viability,Avagacestat + Olaparib; first compound 8 µM,0.66
